In ChEMBL document CHEMBL5055650, “4-Acyl Pyrrole Capped HDAC Inhibitors: A New Scaffold for Hybrid Inhibitors of BET Proteins and Histone Deacetylases as Antileukemia Drug Leads” (J Med Chem, 2021):
pIC50, pKd: −log10 of the molar value. Blank lines part the entries; values can stand above or below the compound they belong to. Calls of active or inactive are those of the source. No cut-off for these calls is given here.

What was measured:
[1] = biological target: Bromodomain-containing protein 2 (Homo sapiens, UniProt P25440); assay: Binding affinity to human BRD2 domain 1 assessed as dissociation constant by isothermal titration calorimetry assay
HL-60 = assay: Cytotoxicity against human HL-60 cells assessed as cell viability at 5 uM by CellTiter-Glo luminescent assay; format: functional; details: read-out: Activity
[2] = biological target: T1, Bromodomain-containing protein 7 (Homo sapiens, UniProt Q9NPI1); assay: Binding affinity to human BRD7 assessed as dissociation constant by isothermal titration calorimetry assay
T1 sequence (Q9NPI1 whole entry): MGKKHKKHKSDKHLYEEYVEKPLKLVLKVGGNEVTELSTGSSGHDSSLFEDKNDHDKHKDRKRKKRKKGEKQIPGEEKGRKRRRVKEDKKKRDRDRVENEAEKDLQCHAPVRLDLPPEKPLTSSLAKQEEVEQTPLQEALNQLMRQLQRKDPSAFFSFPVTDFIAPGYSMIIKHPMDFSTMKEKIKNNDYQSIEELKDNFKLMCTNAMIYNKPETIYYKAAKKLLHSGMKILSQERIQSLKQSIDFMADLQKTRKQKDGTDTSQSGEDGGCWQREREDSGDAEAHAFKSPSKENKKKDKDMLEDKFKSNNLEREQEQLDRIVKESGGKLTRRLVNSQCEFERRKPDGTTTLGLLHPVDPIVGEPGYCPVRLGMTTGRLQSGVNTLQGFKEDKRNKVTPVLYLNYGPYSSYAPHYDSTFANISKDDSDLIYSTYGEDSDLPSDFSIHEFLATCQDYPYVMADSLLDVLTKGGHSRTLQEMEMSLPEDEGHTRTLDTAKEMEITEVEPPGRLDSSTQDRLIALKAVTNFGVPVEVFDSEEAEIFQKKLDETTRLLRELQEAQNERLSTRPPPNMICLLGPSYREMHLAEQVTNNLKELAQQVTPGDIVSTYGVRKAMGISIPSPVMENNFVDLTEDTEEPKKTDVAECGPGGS

Histone deacetylase 3 = Histone deacetylase 3 (Homo sapiens, UniProt O15379); assay: Inhibition of human HDAC3 assessed as target activity using fluorogenic substrate ZMAL for 90 min by microplate reader at 355nm
[3] = Nonlethal toxicity in zebrafish embryos assessed as embryo survival at 0.5 uM after 72 hrs by visual analysis (reference value: 100%); format: organism-based, Danio rerio; details: in vivo
[4] = Nonlethal toxicity in zebrafish embryos assessed as embryo survival at 5 uM after 72 hrs by visual analysis (reference value: 100%); format: organism-based, Danio rerio; details: in vivo
[5] = Nonlethal toxicity in zebrafish embryos assessed as embryo survival at 50 uM after 72 hrs by visual analysis (reference value: 100%); format: organism-based, Danio rerio; details: in vivo
[6] = biological target: Histone deacetylase (Homo sapiens) (UniProt Q13547+O15379+Q9UBN7+Q92769+Q9UQL6+Q8WUI4+Q9BY41+Q96DB2+P56524+Q9UKV0+Q969S8); assay: Inhibition of HDAC in human K562 cells assessed as decrease in MYC expression measured after 24 to 72 hrs by Western blot analysis; format: cell-based; details: time 24-72 hrs
Danio rerio [7] = assay: Toxicity in zebrafish embryos assessed as pericardial edema at 0.005 uM after 72 hrs by visual analysis (reference value: 10%); format: organism-based, Embryo; details: in vivo
Danio rerio [8] = assay: Toxicity in zebrafish embryos assessed as pericardial edema at 50 uM after 72 hrs by visual analysis (reference value: 10%); format: organism-based, Embryo; details: in vivo
Danio rerio [9] = species on record: Danio rerio; assay: Toxicity in zebrafish embryos assessed as head necrosis at 0.05 uM after 72 hrs by visual analysis (reference value: 0%); format: organism-based; details: in vivo
Danio rerio [10] = species on record: Danio rerio; assay: Toxicity in zebrafish embryos assessed as head necrosis at 0.5 uM after 72 hrs by visual analysis (reference value: 0%); format: organism-based; details: in vivo
Danio rerio [11] = species on record: Danio rerio; assay: Toxicity in zebrafish embryos assessed as tail necrosis at 0.005 uM after 72 hrs by visual analysis (reference value: 0%); format: organism-based; details: in vivo
Danio rerio [12] = species on record: Danio rerio; assay: Toxicity in zebrafish embryos assessed as tail necrosis at 0.5 uM after 72 hrs by visual analysis (reference value: 0%); format: organism-based; details: in vivo
Danio rerio [13] = species on record: Danio rerio; assay: Toxicity in zebrafish embryos assessed as tail necrosis at 50 uM after 72 hrs by visual analysis (reference value: 0%); format: organism-based; details: in vivo
Danio rerio [14] = species on record: Danio rerio; assay: Toxicity in zebrafish embryos assessed as malformation of head at 5 uM after 72 hrs by visual analysis (reference value: 0%); format: organism-based; details: in vivo
Danio rerio [15] = species on record: Danio rerio; assay: Toxicity in zebrafish embryos assessed as malformation of tail at 0.005 uM after 72 hrs by visual analysis (reference value: 5%); format: organism-based; details: in vivo
Danio rerio [16] = species on record: Danio rerio; assay: Toxicity in zebrafish embryos assessed as malformation of tail at 0.05 uM after 72 hrs by visual analysis (reference value: 5%); format: organism-based; details: in vivo
Danio rerio [17] = species on record: Danio rerio; assay: Toxicity in zebrafish embryos assessed as malformation of tail at 0.5 uM after 72 hrs by visual analysis (reference value: 5%); format: organism-based; details: in vivo
Danio rerio [18] = species on record: Danio rerio; assay: Toxicity in zebrafish embryos assessed as malformation of tail at 50 uM after 72 hrs by visual analysis (reference value: 5%); format: organism-based; details: in vivo
Danio rerio [19] = species on record: Danio rerio; assay: Toxicity in zebrafish embryos assessed as teratogenesis at 0.005 uM after 72 hrs by visual analysis (reference value: 0%); format: organism-based, Embryo; details: in vivo
Danio rerio [20] = species on record: Danio rerio; assay: Toxicity in zebrafish embryos assessed as teratogenesis at 0.05 uM after 72 hrs by visual analysis (reference value: 0%); format: organism-based, Embryo; details: in vivo
Danio rerio [21] = species on record: Danio rerio; assay: Toxicity in zebrafish embryos assessed as teratogenesis at 5 uM after 72 hrs by visual analysis (reference value: 0%); format: organism-based, Embryo; details: in vivo
Danio rerio [22] = species on record: Danio rerio; assay: Toxicity in zebrafish embryos assessed as teratogenesis at 50 uM after 72 hrs by visual analysis (reference value: 0%); format: organism-based, Embryo; details: in vivo
Danio rerio [23] = species on record: Danio rerio; assay: Toxicity in zebrafish embryos assessed as cardiac teratogenesis/necrosis at 0.05 uM after 72 hrs by visual analysis (reference value: 0%); format: organism-based, Embryo; details: in vivo
Danio rerio [24] = species on record: Danio rerio; assay: Toxicity in zebrafish embryos assessed as cardiac teratogenesis/necrosis at 0.5 uM after 72 hrs by visual analysis (reference value: 0%); format: organism-based, Embryo; details: in vivo
Danio rerio [25] = species on record: Danio rerio; assay: Toxicity in zebrafish embryos assessed as brain hemorrhage at 0.005 uM after 72 hrs by visual analysis (reference value: 0%); format: organism-based; details: in vivo
Danio rerio [26] = species on record: Danio rerio; assay: Toxicity in zebrafish embryos assessed as brain hemorrhage at 0.05 uM after 72 hrs by visual analysis (reference value: 0%); format: organism-based; details: in vivo
Danio rerio [27] = species on record: Danio rerio; assay: Toxicity in zebrafish embryos assessed as brain hemorrhage at 0.5 uM after 72 hrs by visual analysis (reference value: 0%); format: organism-based; details: in vivo
Danio rerio [28] = species on record: Danio rerio; assay: Toxicity in zebrafish embryos assessed as brain hemorrhage at 50 uM after 72 hrs by visual analysis (reference value: 0%); format: organism-based; details: in vivo
Danio rerio [29] = assay: Toxicity in zebrafish embryos assessed as yolk sac edema at 50 uM after 72 hrs by visual analysis (reference value: 0%); format: organism-based, Embryo; details: in vivo
Danio rerio [30] = species on record: Danio rerio; assay: Toxicity in zebrafish embryos assessed as small eyes at 50 uM after 72 hrs by visual analysis (reference value: 10%); format: organism-based, Embryo; details: in vivo
HPBALL [31] = assay: Induction of apoptosis in human HPBALL cells assessed as increase in apoptotic cells at 5 uM after 24 hrs using annexin V/PI followed by flow cytometry; format: functional, cell-based
HPBALL [32] = assay: Induction of apoptosis in human HPBALL cells assessed as increase in apoptotic cells at 5 uM after 48 hrs by using annexin V/PI followed by flow cytometry; format: functional, cell-based
HPBALL [33] = assay: Induction of apoptosis in human HPBALL cells assessed as increase in apoptotic cells at 5 uM after 72 hrs using annexin V/PI followed by flow cytometry; format: functional, cell-based

Sequence of Histone deacetylase 3 (O15379 whole entry): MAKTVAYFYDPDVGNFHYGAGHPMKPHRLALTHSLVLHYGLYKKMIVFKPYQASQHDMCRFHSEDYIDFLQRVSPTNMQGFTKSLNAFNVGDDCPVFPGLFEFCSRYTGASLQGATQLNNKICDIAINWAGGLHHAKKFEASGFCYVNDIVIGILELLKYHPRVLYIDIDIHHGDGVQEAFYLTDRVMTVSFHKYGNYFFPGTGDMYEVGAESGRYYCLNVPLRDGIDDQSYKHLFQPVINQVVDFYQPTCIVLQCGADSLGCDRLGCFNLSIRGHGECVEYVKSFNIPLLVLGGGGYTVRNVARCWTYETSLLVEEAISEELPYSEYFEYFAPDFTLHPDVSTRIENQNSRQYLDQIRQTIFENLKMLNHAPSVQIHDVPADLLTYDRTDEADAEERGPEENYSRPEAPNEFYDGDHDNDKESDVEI
Sequence of Bromodomain-containing protein 2 (P25440 whole entry, the tested form may be a part): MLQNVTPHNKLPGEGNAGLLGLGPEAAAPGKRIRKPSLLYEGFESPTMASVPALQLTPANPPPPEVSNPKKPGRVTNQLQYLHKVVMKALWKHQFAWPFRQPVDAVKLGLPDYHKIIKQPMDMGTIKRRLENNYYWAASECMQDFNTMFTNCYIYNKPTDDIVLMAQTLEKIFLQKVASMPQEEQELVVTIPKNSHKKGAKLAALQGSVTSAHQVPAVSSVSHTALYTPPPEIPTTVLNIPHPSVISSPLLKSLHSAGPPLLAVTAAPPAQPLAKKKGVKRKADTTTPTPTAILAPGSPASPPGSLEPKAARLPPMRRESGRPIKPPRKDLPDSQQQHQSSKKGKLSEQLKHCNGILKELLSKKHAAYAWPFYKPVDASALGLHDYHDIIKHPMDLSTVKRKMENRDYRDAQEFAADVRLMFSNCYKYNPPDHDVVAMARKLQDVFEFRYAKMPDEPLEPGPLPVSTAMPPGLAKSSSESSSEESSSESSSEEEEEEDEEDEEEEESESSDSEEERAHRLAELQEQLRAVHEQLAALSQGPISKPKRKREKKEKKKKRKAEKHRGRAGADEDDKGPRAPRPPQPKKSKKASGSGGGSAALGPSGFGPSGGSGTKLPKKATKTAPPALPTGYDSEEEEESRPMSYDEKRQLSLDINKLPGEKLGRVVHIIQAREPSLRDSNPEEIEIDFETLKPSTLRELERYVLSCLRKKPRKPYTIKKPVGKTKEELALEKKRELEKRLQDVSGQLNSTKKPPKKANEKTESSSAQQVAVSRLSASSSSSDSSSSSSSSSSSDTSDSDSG

SMILES: Cc1[nH]c(C(=O)Nc2cc(S(=O)(=O)N3CCOCC3)ccc2OCCCCCCCC(=O)NO)c2c1C(=O)CCCC2
pKd [1]: 7.57
viability at 5 µM (HL-60): 35.9%
pKd [2]: 6.90
pIC50 (Histone deacetylase 3): 6.53
survival at 72 h, 0.5 µM [3]: 100%
survival at 72 h, 5 µM [4]: 95%
survival at 72 h, 50 µM [5]: 100%
inhibition [6]: Active
Activity (Danio rerio [7]): 15%
Activity (Danio rerio [8]): 15%
Activity (Danio rerio [9]): 0%
Activity (Danio rerio [10]): 15%
Activity (Danio rerio [11]): 15%
Activity (Danio rerio [12]): 0%
Activity (Danio rerio [13]): 15%
Activity (Danio rerio [14]): 0%
Activity (Danio rerio [15]): 5%
Activity (Danio rerio [16]): 0%
Activity (Danio rerio [17]): 15%
Activity (Danio rerio [18]): 15%
Activity (Danio rerio [19]): 15%
Activity (Danio rerio [20]): 10%
Activity (Danio rerio [21]): 15%
Activity (Danio rerio [22]): 0%
Activity (Danio rerio [23]): 0%
Activity (Danio rerio [24]): 0%
Activity (Danio rerio [25]): 0%
Activity (Danio rerio [26]): 0%
Activity (Danio rerio [27]): 0%
Activity (Danio rerio [28]): 0%
Activity (Danio rerio [29]): 10%
Activity (Danio rerio [30]): 10%

pKd [1]: 5.13
pKd [2]: 5.07
pIC50 (Histone deacetylase 3): 6.92
Activity [6]: Active
SMILES: CCc1c(C(=O)Nc2cc(/C=C/C(=O)NO)ccc2OC)[nH]c(C)c1C(C)=O
viability at 5 µM (HL-60): 22.1%
Activity (HPBALL [31]): Active
Activity (HPBALL [32]): Active
Activity (HPBALL [33]): inactive

pKd [1]: 6.64
pKd [2]: 6.64
pIC50 (Histone deacetylase 3): 7.19
inhibition [6]: Active
SMILES: COc1ccc(S(=O)(=O)n2ccc(/C=C/C(=O)NO)c2)cc1NC(=O)c1[nH]c(C)c2c1CCCCC2=O
viability at 5 µM (HL-60): 42.3%
Activity (HPBALL [31]): Active
Activity (HPBALL [32]): Active
Activity (HPBALL [33]): Active
